# Results taken from patent publication US8361802B2, “Fluorescent ozone sensor” (University of Pittsburgh—Of the Commonwealth System of …, priority 2009, dated 2013).
# Tests used:
# [1] = Ozone detection in indoor air on adsorbent paper strips
# Procedure: One embodiment of the present invention can be a badge that contains compound 4 that may be worn by patients so their total ozone exposure can be continuously measured through the day. A proof-of-principle experiment was conducted with compound 4 and compound 1 as a comparative. A solution of compound 4 (500 nmol) in dimethylsulfoxide (DMSO) was absorbed on a piece of adsorbent paper and allowed to dry. The paper strips were stored in an office room that had two photocopiers and two laser printers. After eight hours, the paper strips were removed and placed in a vial that contained oH 7 buffer to elute the dyes. […] The deviation in these values is presumably because of photobleaching and the lack of specificity of compound 1 towards various ROS, including singlet oxygen.
# Ozone detection in indoor air. FIG. 10 are photographic illustrations of results of Ozone detection tests in indoor air using the present invention. The top photograph is a Kimwipe® before placing into photocopy room for 8 hours. The bottom photographs are a Kimwipe® in buffer for absorbance and fluorescence measurement, wherein the left photograph is an indigo carmine taken in room light), and the right photograph is compound 4 taken under long-range UV lamp. One adsorbent paper (Kimwipe®) was cut into two 11×9 cm pieces. Solution A (50 μL, 500 nmol of compound 4) was added to one portion of the Kimwipe® and allowed to dry (FIG. 10, top right). Solution B (50 μL, 500 nmol of indigo carmine) was added to the other portion of the Kimwipe® and allowed to dry (FIG. 10, top left). After overnight drying in a laboratory drawer, the paper strips were moved to a poorly ventilated photocopy room (2 photocopiers and 2 laser printers) for 8 hours. The controls remained in the laboratory drawer. After 8 hours, the samples were placed into a scintillation vial, and the dyes were eluted with pH 7 buffer (6.0 mL) (˜5 min) before fluorescence and absorbance measurement. […] FIGS. 3C-D error bars were determined from the calculated mean and standard deviation (Prism 5.0a, GraphPad Software, Inc.).
# [2] = Indigo carmine with various ROS; settings: 12.5 μM indigo carmine
# Procedure: Indigo carmine with various ROS. The ROS experiments described above were repeated using indigo carmine (Solution B, [Indigo Carmine]final=12.5 μM in all cases) in triplicate. […] FIG. 6A is the Absorbance spectrum of indigo carmine. FIG. 6B is the ROS with indigo carmine. Error bars were determined from the calculated mean and standard deviation (Prism 5.0a, GraphPad Software, Inc.).
# [3] = Fluorescence spectroscopy of the compounds; format: physicochemical
# Procedure: Fluorescence spectroscopy. Fluorescence spectra were recorded in a 1×1-cm disposable cuvette (VWR; catalog number 58017-880) on a Jobin Yvon FluoroMax-3 spectrometer under the control of a Windows-based PC running FluorEssence software. The samples were excited at 497 nm and the emission intensities were collected at 523 nm. All spectra were corrected for emission intensity using the manufacturer supplied photomultiplier curves.
# FIGS. 4A-H illustrate absorbance and fluorescence emission of compounds 4, 7, 8, and S1, wherein fluorescence and emission spectra were measured in 0.1% DMSO in pH 7 buffer. FIG. 4A is absorbance spectrum of compound 4. FIG. 4B is Emission spectrum of compound 4. FIG. 4C is Absorbance spectrum of compound 7. FIG. 4D is Emission spectrum of compound 7. FIG. 4E is Absorbance spectrum of compound 8. FIG. 4F is Emission spectrum of compound 8. FIG. 4G is Absorbance spectrum of compound S1. FIG. 4H is Emission spectrum of compound S1.
# [4] = Cytotoxicity against HeLa cells (MTS assay); format: cell-based; settings: human, 2000 cells/well, 10 nM to 200 μM, read-out: 1050 (cytotoxicity)
# Procedure: FIG. 4J is the cytotoxicity of compound 8 against HeLa cells seeds at a density of 2000 cells/well is a 96-well plate;
# FIG. 4I is the ROS with compound 8. The experiment was performed in duplicate. Error bars were determined from the calculated mean and standard deviation (Prism 5.0a, GraphPad Software, Inc.). FIG. 4J is the cytotoxicity of compound 8 against HeLa cells seeds at a density of 2000 cells/well is a 96-well plate. Concentrations of compound 8 ranged from 10 nM to 200 μM. The assay was performed for 3 days, and the relative cell density was determined by an MTS assay (Promega CellTiter 96® AQueous Non-Radioactive Cell Proliferation Assay).
# [5] = tested on: Human bronchial epithelial cells (BEAS-2B); experiment: Live-cell imaging of human bronchial epithelial cells; format: cell-based
# Procedure: Human bronchial epithelial cells (BEAS-2B) (American Type Culture Collectin) were grown in LHC-9 medium (Invitrogen) on glass-bottomed Petri dishes (MatTek) precoated with 0.01 mg ml^−1 of human fibronectin (Invitrogen), 0.029 mg ml^−1 Vitrogen 100 (Cohesion) and 0.01 mg ml^−1 bovine serum albumin (Invitrogen) in LHC-9 medium. Immediately prior to imaging, cells were rinsed with Hank's balanced salt solution, which contained calcium and magnesium, and placed inside a temperature-controlled, airtight environmental chamber and maintained at 37° C. and 5% CO2. Images were obtained using a Nikon TE2000E-PFS (Perfect focus system) microscope equipped with a […] oil-immersion objective (Nikon, CFI PlanFluor, NA 1.3) and a fluorescien isothiocyanate longpass filter set (Chroma), a Q-Imaging SRV CCD camera (Q-imaging) and MetaMorph software (Molecular Devices). The motorized XYZ stage used was made by ASA (Eugege). Baseline images were collected before the addition of compound 8 and time-lapsed images obtained at 30 second intervals after the addition of compound 8 (250 nM). Once stage baseline had been achieved, multiple washes were carried out and the media replaced. The cells were then exposed to ozone (˜2.1 ppm) and monitored every 30 seconds for 15 minutes. Ozone was generated from medical grade oxygen (Valley Gas) via a model V1-0 ultraviolet ozonator (OREC) and analyzed with a Dasibi (Glendale) direct-reading instrument. Ozone concentrations were maintained by adjusting both the intensity of the ultraviolet light and the flow rate of oxygen. For each experiment, images were collected from six stages, with a minimum of five cells per position (a minimum of 30 cells per […]).
# In another embodiment of the invention, human bronchial epitelial cells were incubated with compound 4 to determine ozone's role in cell biology. […] Based on studies why compound 4 and structurally related compounds are not fluorescent, it is believed that the hydroxymethyl group 4 may have been oxidized to give a more electron-withdrawing group, possible a carboxyl or aldehyde group, and so emit a strong fluorescence signal. To circumvent such an oxidation event, compound 8 was prepared specific for ozone. […] Once a steady baseline signal had been established and maintained for five minutes, ozone gas was generated within the airtight environmental chamber that housed the cell-culture dishes, and fluorescent signals were monitored using live-cell microscopy for approximately 15 minutes.
# FIGS. 16A-H are photographs of live-cell imaging of human bronchial epithelial cells in the presence of ozone using compound 8. The left-hand panels (FIGS. A-E) are pseudocolour images that indicate the changes in emission intensity over time, and the right-hand panels show differential interference contrast images of the bronchial epithelial cells. FIG. 16A is before the addition of compound 8 (0 seconds). FIG. 16B illustrates the cell at 107 seconds that is a steady state intensity reached with compound 8 at 250 nM. FIG. 16C illustrates the cell at 326 seconds when ozone flow is started. FIG. 16D illustrates the cell at 536 seconds with the emission intensity increasing. FIG. 16E illustrates the cell at 675 seconds when emission maximum is reached. FIG. 16F illustrates the cell at 820 seconds when the cell starts to die. FIG. 16G illustrates the cell at 969 seconds where the cell emission continues to fall. FIG. 16H illustrates the cell at 1148 seconds when the ozone flow is stopped.
SMILES,"decrease in absorbance at 610 nm ([1]; 500 nmol on adsorbent paper, photocopy room, eight hours) [%]",consumption of compound 1 ([1]; correlated from decrease in absorbance at 610 nm) [nmol],decrease in absorbance at 610 nm with nearly all ROS [2],fluorescence of the probe itself [3],IC50 at 3 days [4] [µM],"fluorescent emissions inside the cells after ozone generation ([5]; 250 nM, ozone ~2.1 ppm, about 15 minutes)","time at which emission maximum is reached ([5]; 250 nM, ozone flow started at 326 seconds) [s]","fluorescence inside the cells in the absence of external ozone ([5]; human bronchial epithelial cells, no external ozone)"
"O=C1/C(=C2\Nc3ccc(S(=O)(=O)[O-])cc3C2=O)Nc2ccc(S(=O)(=O)[O-])cc21.[Na+].[Na+] [compound 1, indigo carmine]",77,387,11-70%,,,,,
C=CCCOc1cc2oc3cc(=O)c(Cl)cc-3c(-c3ccccc3C)c2cc1Cl [compound 8],,,,nearly non-fluorescent,43,time-dependent increase in fluorescent emissions occurred inside the cells,675,remained weakly fluorescent within the cells
